From PMC7926675, “Rainbow Trout (Oncorhynchus mykiss) Na^+/H^+ Exchangers tNhe3a and tNhe3b Display Unique Inhibitory Profiles Dissimilar from Mammalian NHE Isoforms” (International Journal of Molecular Sciences, 2021)

How the values were obtained:
[1] = target: T1, tNhe3a (trout Na+/H+ exchanger Nhe3a) (Oncorhynchus mykiss, UniProt A4GWV2); assay: two-pulse ammonium chloride acid-load pHi recovery assay (BCECF) in stably transfected AP-1 cells, background subtracted; assay type: cell-based
T1 construct: gene NHE3; GFP-tagged tNhe3a (cDNA identical to NM_001130995) stably expressed in NHE-deficient AP-1 cells
T1 sequence (A4GWV2 1-752): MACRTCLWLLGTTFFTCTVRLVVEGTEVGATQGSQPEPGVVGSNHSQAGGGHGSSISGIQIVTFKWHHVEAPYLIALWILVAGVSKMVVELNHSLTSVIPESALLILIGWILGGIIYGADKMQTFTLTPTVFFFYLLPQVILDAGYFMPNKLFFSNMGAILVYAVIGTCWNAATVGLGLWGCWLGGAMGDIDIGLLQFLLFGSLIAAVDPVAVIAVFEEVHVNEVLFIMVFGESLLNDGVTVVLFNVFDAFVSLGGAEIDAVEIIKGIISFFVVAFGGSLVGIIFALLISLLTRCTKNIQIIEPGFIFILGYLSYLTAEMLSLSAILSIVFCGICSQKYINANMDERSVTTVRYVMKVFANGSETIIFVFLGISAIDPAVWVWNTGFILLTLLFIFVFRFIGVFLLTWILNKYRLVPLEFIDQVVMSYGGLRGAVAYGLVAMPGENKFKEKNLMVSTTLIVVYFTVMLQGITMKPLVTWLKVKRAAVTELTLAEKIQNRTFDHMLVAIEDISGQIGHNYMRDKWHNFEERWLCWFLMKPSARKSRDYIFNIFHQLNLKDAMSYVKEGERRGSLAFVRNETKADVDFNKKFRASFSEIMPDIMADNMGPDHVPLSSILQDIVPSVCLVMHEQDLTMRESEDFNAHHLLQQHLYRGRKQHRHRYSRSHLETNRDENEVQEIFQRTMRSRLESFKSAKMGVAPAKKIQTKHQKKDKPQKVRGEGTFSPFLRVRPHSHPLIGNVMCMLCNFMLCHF

[2] = target: T2, tNhe3b (trout Na+/H+ exchanger Nhe3b) (Oncorhynchus mykiss, UniProt B6VDZ5); assay: two-pulse ammonium chloride acid-load pHi recovery assay (BCECF) in stably transfected AP-1 cells; significant only at […]; assay type: cell-based
T2 construct: GFP-tagged tNhe3b (cDNA identical to FJ376630.1) stably expressed in NHE-deficient AP-1 cells
T2 sequence (B6VDZ5 1-842): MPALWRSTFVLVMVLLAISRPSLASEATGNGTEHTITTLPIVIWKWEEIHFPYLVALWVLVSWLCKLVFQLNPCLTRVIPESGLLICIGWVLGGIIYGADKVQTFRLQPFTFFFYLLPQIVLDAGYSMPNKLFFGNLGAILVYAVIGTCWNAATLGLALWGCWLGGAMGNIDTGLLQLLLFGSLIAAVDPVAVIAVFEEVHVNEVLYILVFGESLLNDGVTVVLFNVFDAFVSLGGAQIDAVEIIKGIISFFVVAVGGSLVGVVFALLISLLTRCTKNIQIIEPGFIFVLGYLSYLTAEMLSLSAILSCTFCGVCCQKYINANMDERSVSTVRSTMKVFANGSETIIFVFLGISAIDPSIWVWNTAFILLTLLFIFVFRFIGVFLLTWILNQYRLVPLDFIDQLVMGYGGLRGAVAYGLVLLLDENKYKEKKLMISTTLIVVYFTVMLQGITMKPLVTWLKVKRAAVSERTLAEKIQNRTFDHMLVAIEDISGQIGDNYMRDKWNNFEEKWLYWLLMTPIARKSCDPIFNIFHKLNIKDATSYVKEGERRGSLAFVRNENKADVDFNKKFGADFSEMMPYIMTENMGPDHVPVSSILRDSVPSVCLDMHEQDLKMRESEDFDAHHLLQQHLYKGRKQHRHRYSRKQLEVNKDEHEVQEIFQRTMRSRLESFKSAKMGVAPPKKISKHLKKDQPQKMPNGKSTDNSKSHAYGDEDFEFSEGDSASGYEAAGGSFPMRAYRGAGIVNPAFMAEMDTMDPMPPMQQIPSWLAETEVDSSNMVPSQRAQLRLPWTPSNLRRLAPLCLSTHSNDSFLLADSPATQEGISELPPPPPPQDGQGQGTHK

Structure (SMILES) | IC50 [1] [µM] | IC50 [2] [µM]
N=C(N)NC(=O)c1nc(Cl)c(N)nc1N [amiloride, N-amidino-3,5-diamino-6-chloropyrazinecarboxamide] | ~9.3 | ~335
CCN(c1nc(N)c(C(=O)NC(=N)N)nc1Cl)C(C)C [EIPA] | ~44 | 
